Measurements: patent US9365574B2, “Soluble guanylate cyclase activators” (Merck Sharp & Dohme Corp., priority 2010, dated 2016)

System: Spontaneously hypertensive rats (SHR)
Assay: Acute Efficacy in Spontaneously Hypertensive Rats (SHR), telemetry blood pressure
Format: in vivo, rat
Conditions: single oral dose 0.1 mpk P.O.
From the text: Acute Efficacy in Spontaneously Hypertensive Rats (SHR)
Spontaneously hypertensive rats (SHR, male, Charles River) were implanted with DSI TA11PA-C40 telemetry device (Data Sciences, Inc., St. Paul, Minn.) under isoflurane or ketamine/metomidine anesthesia. The telemetry unit catheter was inserted into the descending aorta via the femoral artery and the telemetry device was implanted subcutaneously in the left flank area. Animals were allowed to recover from surgery for 14 days before the start of any studies. Blood pressure, heart rate, and activity signals from conscious, freely moving rats were recorded continuously for 30 seconds every 10 minutes. On the day prior to administration of compound, a single oral dose of vehicle (10% transcutol/20% Cremophor/70% water) was administered to all animals to establish baseline control data. The blood pressure lowering efficacy of compound (PO) or vehicle was evaluated following a single oral gavage. Data were collected as hourly averages, and changes in blood pressure were calculated by subtracting control baseline data on an hourly basis. Animals were maintained on normal diet with a 12 hour light-dark cycle.
Maximum peak decreases of systolic blood pressure (SBP) in SHR at a particular P.O. dose (mpk milligrams per kilogram) for the following representative compounds are provided.

Compound	Maximum peak decrease of systolic blood pressure (SBP) in SHR, Category
CC1(c2nnc(C(F)F)o2)C(=O)Nc2nc(-c3nn(CCC(F)(F)C(F)(F)F)c4ncccc34)nc(N)c21 (stereo not shown) [Example 212, 4-amino-5-[5-(difluoromethyl)-1,3,4-oxadiazol-2-yl]-5-methyl-2-[1-(3,3,4,4.4-pentafluorobutyl)-1H-pyrazolo[3,4-b]pyridin-3-yl]-5,7-dihydro-6H-pyrrolo(2,3-d]pyrimidin-6-one]	B (Category B=SBP in SHRs 25-40 mmHg)
CC1(C(N)=O)C(=O)Nc2nc(-c3nn(CCC(F)(F)C(F)(F)F)c4nc(Cl)ccc34)nc(N)c21 (stereo not shown) [Example 214, 4-amino-2-[6-chloro-1-(3,3,4,4,4-pentafluorobutyl)-1H-pyrazolo[3,4-b]pyridin-3-yl]-5-methyl-6-oxo-6,7-dihydro-5H-pyrrolo[2,3-d]pyrimidine-5-carboxamide]	A (Category A=SBP in SHRs<25 mmHg)

Same assay, conditions: single oral dose 0.3 mpk P.O.

Compound	Maximum peak decrease of systolic blood pressure (SBP) in SHR, Category
CC(C)n1nc(C2(C)C(=O)Nc3nc(-c4nn(CCC(F)(F)C(F)(F)F)c5ccncc45)nc(N)c32)oc1=O (stereo not shown) [Example 199, 4-amino-5-methyl-5-[4-(1-methylethyl)-5-oxo-4,5-dihydro-1,3,4-oxadiazol-2-yl]-2-[1-(3,3,4,4,4-pentafluorobutyl)-1H-pyrazolo[3,4-d]pyridin-3-yl]-5,7-dihydro-6H-pyrrolo[2,3-d]pyrimidin-6-one]	B (Category B=SBP in SHRs 25-40 mmHg)
CC1(C(=O)NC2CC2)C(=O)Nc2nc(-c3nn(CCOC(F)(F)F)c4ncccc34)nc(N)c21 (stereo not shown) [Example 200, 4-amino-N-cyclopropyl-5-methyl-6-oxo-2-{1-[2-(trifluoromethoxy)ethyl]-1H-pyrazolo[3,4-6]pyridin-3-yl}-6,7-dihydro-5H-pyrrolo[2,3-d]pyrimidine-5-carboxamide]	C (Category C=SBP in SHRs>40 mmHg)
CC1(N)C(=O)Nc2nc(-c3nn(CCC(F)(F)C(F)(F)F)c4cc(Cl)ccc34)nc(N)c21 (stereo not shown) [Example 201, 4,5-diamino-2-[6-chloro-1-(3,3,4,4,4-pentafluorobutyl)-1H-indazol-3-yl]-5-methyl-5,7-dihydro-6H-pyrrolo[2,3-d]pyrimidin-6-one]	A (Category A=SBP in SHRs<25 mmHg)
CC1(NCC2CC2)C(=O)Nc2nc(-c3nn(CCC(F)(F)C(F)(F)F)c4cc(Cl)ccc34)nc(N)c21 (stereo not shown) [Example 202, 4-amino-2-[6-chloro-1-(3,3,4,4,4-pentafluorobutyl)-1H-indazol-3-yl)-5-[(cyclopropylmethyl)amino]-5-methyl-5,7-dihydro-6H-pyrrolo[2,3-d]pyrimidin-6-one]	C (Category C=SBP in SHRs>40 mmHg)
CC1(c2nnc(C(F)(F)F)o2)C(=O)Nc2nc(-c3nn(CCC(F)(F)C(F)(F)F)c4ccncc34)nc(N)c21 (stereo not shown) [Example 203, 4-amino-5-methyl-2-[1-(3,3,4,4,4-pentafluorobutyl)-1H-pyrazolo[3,4-d]pyridin-3-yl]-5-[5-(trifluoromethyl)-1,3,4-oxadiazol-2-yl)-5,7-dihydro-6H-pyrrolo[2,3-d]pyrimidin-6-one]	C (Category C=SBP in SHRs>40 mmHg)
CC1(c2nnco2)C(=O)Nc2nc(-c3nn(CCC(F)(F)C(F)(F)F)c4ncccc34)nc(N)c21 (stereo not shown) [Example 204, 4-amino-5-methyl-5-(1,3,4-oxadiazol-2-yl)-2-[1-(3,3,4,4,4-pentafluorobutyl)-1H-pyrazolo[3,4-b]pyridin-3-yl]-5,7-dihydro-6H-pyrrolo[2,3-d]pyrimidin-6-one]	B (Category B=SBP in SHRs 25-40 mmHg)
Cc1nc(C2(C)C(=O)Nc3nc(-c4nn(CCC(F)(F)C(F)(F)F)c5ncccc45)nc(N)c32)sc1C (stereo not shown) [Example 206, 4-amino-5-(4,5-dimethyl-1,3-thiazol-2-yl)-5-methyl-2-[1-(3,3,4,4,4-pentafluorobutyl)-1H-pyrazolo[3,4-b]pyridin-3-yl]-5,7-dihydro-6H-pyrrolo[2,3-d]pyrimidin-6-one]	C (Category C=SBP in SHRs>40 mmHg)
CC1(c2nc(C(F)(F)F)no2)C(=O)Nc2nc(-c3nn(CCC(F)(F)C(F)(F)F)c4ncccc34)nc(N)c21 (stereo not shown) [Example 207, 4-amino-5-methyl-2-[1-(3,3,4,4,4-pentafluorobutyl)-1H-pyrazolo[3,4-b]pyridin-3-yl]-5-[3-(trifluoromethyl)-1,2,4-oxadiazol-5-yl]-5,7-dihydro-6H-pyrrolo[2,3-d]pyrimidin-6-one]	C (Category C=SBP in SHRs>40 mmHg)
Cn1ccc(NC(=O)C2(C)C(=O)Nc3nc(-c4nn(CCOC(F)(F)F)c5ncccc45)nc(N)c32)n1 (stereo not shown) [Example 210, 4-amino-5-methyl-N-(1-methyl-1H-pyrazol-3-yl)-6-oxo-2-{1-[2-(trifluoromethoxy)ethyl]-1H-pyrazolo[3,4-b]pyridin-3-yl}-6,7-dihydro-5H-pyrrolo[2,3-d]pyrimidine-5-carboxamide]	B (Category B=SBP in SHRs 25-40 mmHg)
CCc1nnc(C2(C)C(=O)Nc3nc(-c4nn(CCC(F)(F)C(F)(F)F)c5ncccc45)nc(N)c32)o1 (stereo not shown) [Example 211, 4-amino-5-(5-ethyl-1,3,4-oxadiazol-2-yl)-5-methyl-2-[1-(3,3,4,4,4-pentafluorobutyl)-1H-pyrazolo[3,4-b]pyridin-3-yl]-5,7-dihydro-6H-pyrrolo[2,3-d]pyrimidin-6-one]	C (Category C=SBP in SHRs>40 mmHg)
CC(C)c1nnc(C2(C)C(=O)Nc3nc(-c4nn(CCC(F)(F)C(F)(F)F)c5ncccc45)nc(N)c32)o1 (stereo not shown) [Example 213, 4-amino-5-methyl-5-[5-(1-methylethyl)-1,3,4-oxadiazol-2-yl]-2-[1-(3,3,4,4,4-pentafluorobutyl)-1H-pyrazolo[3,4-b]pyridin-3-yl]-5,7-dihydro-6H-pyrrolo[2,3-d]pyrimidin-6-one]	C (Category C=SBP in SHRs>40 mmHg)

Same assay, conditions: single oral dose 1 mpk P.O.

Compound	Maximum peak decrease of systolic blood pressure (SBP) in SHR, Category
CC1(C(N)=S)C(=O)Nc2nc(-c3nn(CCC(F)(F)C(F)(F)F)c4ncccc34)nc(N)c21 (stereo not shown) [Example 205, 4-amino-5-methyl-6-oxo-2-[1-(3,3,4,4,4-pentafluorobutyl)-1H-pyrazolo[3,4-6]pyridin-3-yl]-6,7-dihydro-5H-pyrrolo[2,3-d]pyrimidine-5-carbothioamide]	C (Category C=SBP in SHRs>40 mmHg)
CC1(CC(=O)NC2CC2)C(=O)Nc2nc(-c3nn(CCC(F)(F)C(F)(F)F)c4cc(Cl)ccc34)nc(N)c21 (stereo not shown) [Example 208, 2-{4-amino-2-[6-chloro-1-(3,3,4,4,4-pentafluorobutyl)-1H-indazol-3-yl]-5-methyl-6-oxo-6,7-dihydro-5H-pyrrolo[2,3-d]pyrimidin-5-yl}-N-cyclopropylacetamide]	A (Category A=SBP in SHRs<25 mmHg)
CC1(C(=O)Nc2ccccn2)C(=O)Nc2nc(-c3nn(CCOC(F)(F)F)c4ncccc34)nc(N)c21 (stereo not shown) [Example 209, 4-amino-5-methyl-6-oxo-N-pyridin-2-yl-2-{1-[2-(trifluoromethoxy)ethyl]-1H-pyrazolo[3,4-b]pyridin-3-yl}-6,7-dihydro-5H-pyrrolo[2,3-d]pyrimidine-5-carboxamide]	B (Category B=SBP in SHRs 25-40 mmHg)
